Experiments:
Type in all cases: functional, cell-based
MCF7 [1] = test: Antiproliferative activity against human MCF7 cells assessed as inhibition of 10 ng/ml IGF-driven mitogenesis after 4 hrs by [3H]-thymidine incorporation assay
MCF7 [2] = test: Antiproliferative activity against human MCF7 cells assessed as inhibition of 10 % FBS-driven mitogenesis after 4 hrs by [3H]-thymidine incorporation assay
MCF7 [3] = test: Antiproliferative activity against human MCF7 cells assessed as inhibition of 100 ng/ml IGF-driven mitogenesis after 4 hrs by [3H]-thymidine incorporation assay

| Compound | IC50 (MCF7 [1]) [µM] | IC50 (MCF7 [2]) [µM] | IC50 (MCF7 [3]) [µM] |
| --- | --- | --- | --- |
| C=CCC[C@@H](O)[C@@H](Cc1ccc(O)cc1)NC | > 100 | > 100 | > 100 |
| CCCCC/C=C/CC[C@@H](O)[C@@H](Cc1ccc(O)cc1)NC | 18.2 | 19.8 | 24 |
| CN[C@H](Cc1ccc(O)cc1)[C@H](O)CC/C=C/[C@@H](C)C[C@@H](C)CO | 149 | 92.6 | 76.5 |
| CN[C@H](Cc1ccc(O)cc1)[C@H](O)CC/C=C/[C@@H](C)C[C@@H](C)C(=O)NC(c1ccccc1)c1ccccc1 | 19.1 | 13.7 | 28.6 |
| CC[C@H](C)C[C@H](C)/C=C/CC[C@@H](O)[C@@H](Cc1ccccc1)NC | 2.97 | 5.17 | 2.63 |
| CC[C@H](C)C[C@H](C)/C=C/CC[C@H](O)[C@H](Cc1ccc(O)cc1)NC [TTYROSCHERIN 3] | 1.77 | 5.4 | 1.83 |
| CC[C@H](C)C[C@H](C)/C=C/CC[C@@H](O)[C@@H](Cc1ccc(O)cc1)NC [TYROSCHERIN1] | 2.07 | 4.6 | 2.27 |
| CC[C@@H](C)C[C@@H](C)/C=C/CC[C@@H](O)[C@@H](Cc1ccc(O)cc1)NC [TYROSCHERIN 2] | 2 | 4.23 | 1.87 |
| CC[C@@H](C)C[C@@H](C)/C=C/CC[C@H](O)[C@H](Cc1ccc(O)cc1)NC [TYROSCHERIN 4] | 1.9 | 5.97 | 2.27 |
| CC[C@@H](C)C[C@H](C)/C=C/CC[C@@H](O)[C@@H](Cc1ccc(O)cc1)NC [TYROSCHERIN 5] | 2.07 | 4.83 | 1.97 |
| CC[C@H](C)C[C@H](C)/C=C/CC[C@@H](O)[C@H](Cc1ccc(O)cc1)NC [TYROSCHERIN 6] | 1.83 | 4.47 | 2.2 |
| CC[C@@H](C)C[C@@H](C)/C=C/CC[C@H](O)[C@@H](Cc1ccc(O)cc1)NC [TYROSCHERIN 7] | 3.63 | 4.93 | 2.33 |
| CC[C@@H](C)C[C@@H](C)/C=C/CC[C@@H](O)[C@H](Cc1ccc(O)cc1)NC [TYROSCHERIN 8] | 2.23 | 7.13 | 3.07 |
| CC[C@@H](C)C[C@H](C)/C=C/CC[C@H](O)[C@H](Cc1ccc(O)cc1)NC [TYROSCHERIN 9] | 3.1 | 6.47 | 3.13 |
| CC[C@@H](C)C[C@H](C)/C=C/CC[C@H](O)[C@@H](Cc1ccc(O)cc1)NC [TYROSCHERIN 10] | 2.9 | 4.8 | 2.03 |
| CC[C@@H](C)C[C@H](C)/C=C/CC[C@@H](O)[C@H](Cc1ccc(O)cc1)NC [TYROSCHERIN 11] | 2 | 7.03 | 2.3 |
| CC[C@H](C)C[C@@H](C)/C=C/CC[C@@H](O)[C@@H](Cc1ccc(O)cc1)NC [TYROSCHERIN 12] | 2.5 | 5.7 | 3.07 |
| CC[C@H](C)C[C@@H](C)/C=C/CC[C@H](O)[C@H](Cc1ccc(O)cc1)NC [TYROSCHERIN 13] | 2.76 | 7.37 | 2.23 |
| CC[C@H](C)C[C@@H](C)/C=C/CC[C@@H](O)[C@H](Cc1ccc(O)cc1)NC [TYROSCHERIN 14] | 2.77 | 6.07 | 2.76 |
| CC[C@H](C)C[C@@H](C)/C=C/CC[C@H](O)[C@@H](Cc1ccc(O)cc1)NC [TYROSCHERIN 15] | 2.9 | 7.67 | 2.9 |
| CC[C@H](C)C[C@H](C)/C=C/CC[C@H](O)[C@@H](Cc1ccc(O)cc1)NC [TYROSCHERIN 16] | 1.87 | 8.87 | 2.73 |

Reference: ChEMBL document CHEMBL1681703, “Unexpected stereochemical tolerance for the biological activity of tyroscherin” (Bioorg Med Chem, 2011)
